Source: patent US10919916B2, “Boron-containing small molecules” (Bill & Melinda Gates Foundation, priority 2016, dated 2021)
In brackets after ≈: the same amount, converted by molar mass.

Experiments:
Type in all cases: cell-based
[1] = test system: Staphylococcus aureus, MRSA (ATCC 33591); test: Antibacterial MIC assay (microbroth dilution, CLSI); details: microbroth dilution, cation-adjusted Mueller-Hinton broth, 35° C. for 16-20 hours, read-out: MIC Staphylococcus aureus, MRSA (ATCC 33591)
Summary of the method: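 Compound 2-fold dilution series tested against 5×10^5 CFU/mL bacteria prepared from 0.5 McFarland saline suspensions of overnight colonies. Medium was cation-adjusted Mueller-Hinton broth, supplemented with 3% lysed horse blood for the fastidious pneumococcus. Protocol followed CLSI M07-A10 and M100-S25.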

[2] = test system: Streptococcus pneumoniae (ATCC 49619); test: as above; details: ATCC49619, microbroth dilution, 3% lysed horse blood, 35° C. for 16-20 hours, read-out: MIC Streptococcus pneumoniae (ATCC 49619)
Summary of the method: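 S. pneumoniae at 5×10^5 CFU/mL (from 0.5 McFarland saline suspension) was tested against 2-fold serial compound dilutions in cation-adjusted Mueller-Hinton broth plus 3% lysed horse blood, per CLSI M07-A10/M100-S25 microdilution guidelines.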

[3] = test system: Wolbachia pipientis in C6/36 cell line; test: Anti-Wolbachia high-content assay; details: C6/36 (wAlbB) cells, 7 days at 26° C., 50% reduction of Wolbachia, read-out: EC50 Wolbachia pipientis in C6/36 cell line
Method: After 15 minutes, all media was removed from each well and fresh media (no stain) was added. Imaging of each well was accomplished using a Perkin Elmer Operetta high-content imaging system. Five fields per well were imaged using a confocal 60× objective with the Fluorescein filter (excitation filter: 460-490 nm; emission filter: 500-550 nm). Images were analyzed using the Perkin Elmer Harmony software to score each intact cell on the basis of texture complexity of the cytoplasm. Full details can be found in: […]. et al, J. Biomol.

SMILES	MIC [1]	MIC [2]	EC50 [3]
C=C[C@]1(C)C[C@@H](OC(=O)COc2ccc3c(c2)B(O)OC3)[C@]2(C)[C@H](C)CC[C@]3(C[C@H](F)C(=O)[C@H]32)[C@@H](C)[C@@H]1O [Compound 38, (2S,3aR,4R,5R,7S,8S,9R,9aS,12R)-2-fluoro-8-hydroxy-4,7,9,12-tetramethyl-3-oxo-7-vinyldecahydro-4,9a-propanocyclopenta[8]annulen-5-yl 2-((1-hydroxy-1,3-dihydrobenzo[c][1,2]oxaborol-6-yl)oxy)acetate]	< 0.25 µg/mL	0.5 to 2 µg/mL (≈ 0.946 to 3.78 µM)	9 nM
C=C[C@]1(C)C[C@@H](OC(=O)COc2cc(CNC(=O)OC(C)(C)C)c3c(c2)B(O)OC3)[C@]2(C)[C@H](C)CC[C@]3(C[C@H](O)C(=O)[C@H]32)[C@@H](C)[C@@H]1O [Compound 41, (2S,3aR,4R,5R,7S,8S,9R,9aS,12R)-2,8-dihydroxy-4,7,9,12-tetramethyl-3-oxo-7-vinyldecahydro-4,9a-propanocyclopenta[8]annulen-5-yl 2-((4-(((tert-butoxycarbonyl)amino)methyl)-1-hydroxy-1,3-dihydrobenzo[c][1,2]oxaborol-6-yl)oxy)acetate]	0.5 to 2 µg/mL (≈ 0.763 to 3.05 µM)	0.5 to 2 µg/mL (≈ 0.763 to 3.05 µM)	625 nM
C=C[C@]1(C)C[C@@H](OC(=O)COc2ccc3c(c2)B(O)OC3CNC(C)=O)[C@]2(C)[C@H](C)CC[C@]3(CCC(=O)[C@H]32)[C@@H](C)[C@@H]1O (stereo partly drawn) [Compound 22, (3aR,4R,5R,7S,8S,9R,9aS,12R)-8-hydroxy-4,7,9,12-tetramethyl-3-oxo-7-vinyldecahydro-4,9a-propanocyclopenta[8]annulen-5-yl 2-((3-(acetamidomethyl)-1-hydroxy-1,3-dihydrobenzo[c][1,2]oxaborol-6-yl)oxy)acetate]	0.5 to 2 µg/mL (≈ 0.86 to 3.44 µM)	0.5 to 2 µg/mL (≈ 0.86 to 3.44 µM)	> 1000 nM
C=C[C@]1(C)C[C@@H](OC(=O)COc2cc3c(cc2F)COB3O)[C@]2(C)[C@H](C)CC[C@]3(C[C@H](F)C(=O)[C@H]32)[C@@H](C)[C@@H]1O [Compound 40, (2S,3aR,4R,5R,7S,8S,9R,9aS,12R)-2-fluoro-8-hydroxy-4,7,9,12-tetramethyl-3-oxo-7-vinyldecahydro-4,9a-propanocyclopenta[8]annulen-5-yl 2-((5-fluoro-1-hydroxy-1,3-dihydrobenzo[c][1,2]oxaborol-6-yl)oxy)acetate]	< 0.25 µg/mL	0.5 to 2 µg/mL (≈ 0.915 to 3.66 µM)	18 nM
C=C[C@]1(C)C[C@@H](OC(=O)COc2cc(CN(C)C)c3c(c2)B(O)OC3)[C@]2(C)[C@H](C)CC[C@]3(CCC(=O)[C@H]32)[C@@H](C)[C@@H]1O.Cl [Compound 13, (3aR,4R,5R,7S,8S,9R,9aS,12R)-8-hydroxy-4,7,9,12-tetramethyl-3-oxo-7-vinyldecahydro-4,9a-propanocyclopenta[8]annulen-5-yl 2-((4-((dimethylamino)methyl)-1-hydroxy-1,3-dihydrobenzo[c][1,2]oxaborol-6-yl)oxy)acetate Hydrochloride]	< 0.25 µg/mL	0.5 to 2 µg/mL	81 nM
C=C[C@]1(C)C[C@@H](OC(=O)COc2ccc3c(c2)B(O)OC3)[C@]2(C)[C@H](C)CC[C@]3(C[C@H](O)C(=O)[C@H]32)[C@@H](C)[C@@H]1O [Compound 35, (2S,3aR,4R,5R,7S,8S,9R,9aS,12R)-2,8-dihydroxy-4,7,9,12-tetramethyl-3-oxo-7-vinyldecahydro-4,9a-propanocyclopenta[8]annulen-5-yl 2-((1-hydroxy-1,3-dihydrobenzo[c][1,2]oxaborol-6-yl)oxy)acetate]	< 0.25 µg/mL	0.5 to 2 µg/mL (≈ 0.95 to 3.8 µM)	30 nM
C=C[C@]1(C)C[C@@H](OC(=O)NC(=O)c2ccc3c(c2)B(O)OC3)[C@]2(C)[C@H](C)CC[C@]3(CCC(=O)[C@H]32)[C@@H](C)[C@@H]1O [Compound 58, (3aR,4R,5R,7S,8S,9R,9aS,12R)-8-hydroxy-4,7,9,12-tetramethyl-3-oxo-7-vinyldecahydro-4,9a-propanocyclopenta[8]annulen-5-yl (1-hydroxy-1,3-dihydrobenzo[c][1,2]oxaborole-6-carbonyl)carbamate]	< 0.25 µg/mL	0.5 to 2 µg/mL (≈ 0.955 to 3.82 µM)	56 nM

Results, then the molecule that gave them:

MIC [1]	MIC [2]	EC50 [3]	SMILES
< 0.25 µg/mL	0.5 to 2 µg/mL (≈ 0.838 to 3.35 µM)	3 nM	C=C[C@]1(C)C[C@@H](OC(=O)COc2ccc3c(c2)B(O)N(C(=O)OC)N=C3)[C@]2(C)[C@H](C)CC[C@]3(C[C@H](O)C(=O)[C@H]32)[C@@H](C)[C@@H]1O [Compound 90, Methyl 7-(2-(((2S,3aR,4R,5R,7S,8S,9R,9aS,12R)-2,8-dihydroxy-4,7,9,12-tetramethyl-3-oxo-7-vinyldecahydro-4,9a-propanocyclopenta[8]annulen-5-yl)oxy)-2-oxoethoxy)-1-hydroxybenzo[d][1,2,3]diazaborinine-2(1H)-carboxylate]
< 0.25 µg/mL	< 0.25 µg/mL	4 nM	C=C[C@]1(C)C[C@@H](OC(=O)COc2ccc3c(c2)B(O)NN=C3)[C@]2(C)[C@H](C)CC[C@]3(C[C@H](F)C(=O)[C@H]32)[C@@H](C)[C@@H]1O [Compound 74, (2S,3aR,4R,5R,7S,8S,9R,9aS,12R)-2-fluoro-8-hydroxy-4,7,9,12-tetramethyl-3-oxo-7-vinyldecahydro-4,9a-propanocyclopenta[8]annulen-5-yl 2-((1-hydroxy-1,2-dihydrobenzo[d][1,2,3]diazaborinin-7-yl)oxy)acetate]
0.5 to 2 µg/mL (≈ 0.902 to 3.61 µM)	0.5 to 2 µg/mL (≈ 0.902 to 3.61 µM)	78 nM	C=C[C@]1(C)C[C@@H](OC(=O)COc2ccc3c(c2)B(O)N(C)N=C3)[C@]2(C)[C@H](C)CC[C@]3(C[C@H](F)C(=O)[C@H]32)[C@@H](C)[C@@H]1O [Compound 84, (2S,3aR,4R,5R,7S,8S,9R,9aS,12R)-2-fluoro-8-hydroxy-4,7,9,12-tetramethyl-3-oxo-7-vinyldecahydro-4,9a-propanocyclopenta[8]annulen-5-yl 2-((1-hydroxy-2-methyl-1,2-dihydrobenzo[d][1,2,3]diazaborinin-7-yl)oxy)acetate]
4 to 32 µg/mL (≈ 6.3 to 50.4 µM)	0.5 to 2 µg/mL (≈ 0.788 to 3.15 µM)	> 1000 nM	C=C[C@]1(C)C[C@@H](OC(=O)COc2ccc3c(c2F)B(O)N(S(C)(=O)=O)N=C3)[C@]2(C)[C@H](C)CC[C@]3(C[C@H](O)C(=O)[C@H]32)[C@@H](C)[C@@H]1O [Compound 77, (2S,3aR,4R,5R,7S,8S,9R,9aS,12R)-2,8-dihydroxy-4,7,9,12-tetramethyl-3-oxo-7-vinyldecahydro-4,9a-propanocyclopenta[8]annulen-5-yl 2-((8-fluoro-1-hydroxy-2-(methylsulfonyl)-1,2-dihydrobenzo[d][1,2,3]diazaborinin-7-yl)oxy)acetate]
0.5 to 2 µg/mL (≈ 0.923 to 3.69 µM)	0.5 to 2 µg/mL (≈ 0.923 to 3.69 µM)	13 nM	C=C[C@]1(C)C[C@@H](OC(=O)COc2ccc3c(c2)B(O)ON=C3)[C@]2(C)[C@H](C)CC[C@]3(C[C@H](F)C(=O)[C@H]32)[C@@H](C)[C@@H]1O [Compound 99, (2S,3aR,4R,5R,7S,8S,9R,9aS,12R)-2-fluoro-8-hydroxy-4,7,9,12-tetramethyl-3-oxo-7-vinyldecahydro-4,9a-propanocyclopenta[8]annulen-5-yl 2-((1-hydroxy-1H-benzo[d][1,2,6]oxazaborinin-7-yl)oxy)acetate]
0.5 to 2 µg/mL (≈ 0.929 to 3.71 µM)	< 0.25 µg/mL	12 nM	C=C[C@]1(C)C[C@@H](OC(=O)COc2ccc3c(c2)B(O)NN=C3)[C@]2(C)[C@H](C)CC[C@]3(C[C@H](O)C(=O)[C@H]32)[C@@H](C)[C@@H]1O [Compound 70, (2S,3aR,4R,5R,7S,8S,9R,9aS,12R)-2,8-dihydroxy-4,7,9,12-tetramethyl-3-oxo-7-vinyldecahydro-4,9a-propanocyclopenta[8]annulen-5-yl 2-((1-hydroxy-1,2-dihydrobenzo[d][1,2,3]diazaborinin-7-yl)oxy)acetate]
0.5 to 2 µg/mL (≈ 0.786 to 3.14 µM)	0.5 to 2 µg/mL (≈ 0.786 to 3.14 µM)	> 1000 nM	C=C[C@]1(C)C[C@@H](OC(=O)COc2ccc3c(c2F)B(O)N(S(C)(=O)=O)N=C3)[C@]2(C)[C@H](C)CC[C@]3(C[C@H](F)C(=O)[C@H]32)[C@@H](C)[C@@H]1O [Compound 76, (2S,3aR,4R,5R,7S,8S,9R,9aS,12R)-2-fluoro-8-hydroxy-4,7,9,12-tetramethyl-3-oxo-7-vinyldecahydro-4,9a-propanocyclopenta[8]annulen-5-yl 2-((8-fluoro-1-hydroxy-2-(methylsulfonyl)-1,2-dihydrobenzo[d][1,2,3]diazaborinin-7-yl)oxy)acetate]
0.5 to 2 µg/mL (≈ 0.978 to 3.91 µM)	4 to 32 µg/mL (≈ 7.82 to 62.6 µM)	> 1000 nM	C=C[C@]1(C)C[C@@H](OC(=O)COc2cnc3c(c2)B(O)OC3)[C@]2(C)[C@H](C)CC[C@]3(CCC(=O)[C@H]32)[C@@H](C)[C@@H]1O [Compound 101, (3aR,4R,5R,7S,8S,9R,9aS,12R)-8-hydroxy-4,7,9,12-tetramethyl-3-oxo-7-vinyldecahydro-4,9a-propanocyclopenta[8]annulen-5-yl 2-((1-hydroxy-1,3-dihydro-[1,2]oxaborolo[4,3-b]pyridin-6-yl)oxy)acetate]
